This is an account of results in publication PMC13193874, “Targeting PIP5K ameliorates hepatic cancer by inhibiting PI3K/AKT and the autophagy mechanism and enhancing ROS-mediated apoptosis” (Frontiers in Pharmacology, 2026).

The assay addresses PIP5K1B (Homo sapiens, UniProt O14986). Briefly: cell-free kinase assay (Thermo Fisher SelectScreen, ADP detection), 10-point dose response; […] inhibition at […]. In kind it is biochemical.

Sequence of PIP5K1B (O14986 whole entry): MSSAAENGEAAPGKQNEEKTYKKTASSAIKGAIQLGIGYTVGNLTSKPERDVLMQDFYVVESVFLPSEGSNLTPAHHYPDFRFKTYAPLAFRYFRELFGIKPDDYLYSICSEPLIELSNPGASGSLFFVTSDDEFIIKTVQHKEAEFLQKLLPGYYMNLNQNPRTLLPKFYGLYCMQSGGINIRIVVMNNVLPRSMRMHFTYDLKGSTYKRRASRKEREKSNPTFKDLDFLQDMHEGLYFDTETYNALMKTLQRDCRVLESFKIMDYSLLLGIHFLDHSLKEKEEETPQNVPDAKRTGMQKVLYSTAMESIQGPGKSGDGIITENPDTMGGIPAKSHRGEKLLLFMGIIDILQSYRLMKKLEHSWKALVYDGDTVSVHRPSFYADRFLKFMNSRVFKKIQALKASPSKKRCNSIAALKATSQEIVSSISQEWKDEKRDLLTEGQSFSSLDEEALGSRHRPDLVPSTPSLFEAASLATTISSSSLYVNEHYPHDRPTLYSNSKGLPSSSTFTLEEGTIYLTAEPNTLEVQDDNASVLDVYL

`Fc1ccc(Nc2nc(Nc3ccc(-c4nc5ccccc5[nH]4)cc3)nc(N3CCOCC3)n2)cc1` [15g, N2-[4-(1H-benzimidazol-2-yl)phenyl]-N4-(4-fluorophenyl)-6-(4-morpholinyl)-1,3,5-triazine-2,4-diamine]: the IC50 is 281 nM.
